The results in this text go back to patent US8063089B2, “Inhibitors of nucleophosmin (NPM) and methods for inducing apoptosis” (Arizona Board of Regents on Behalf of the University of …, priority 2007, dated 2011).

Assay [1] has as its system HCT116 colon cancer cells. The assay can be described thus: SCID mouse HCT116 colon cancer xenograft. Type of assay: in vivo, SCID mice. The settings on record: for survival: i.p. for 4 weeks, NSC348884 1.5 mg/kg Mon/Wed/Fri, doxorubicin 20 ug/kg Mon. As for the experimental part:
SCID mice were inoculated with 10×10^6 HCT116 colon cancer cells in their flanks to form measurable tumors in the range 60-100 mm^3. Mice were pair matched with 12 mice per arm. NSC348884 was administered (Monday, Wednesday, Friday), Doxorubicin (Monday), combination or vehicle by intra-peritoneal injection each for 4 weeks. Measurements of tumor growth were performed twice a week and tumor volume estimated according to the formula: [(width)^2×length]/2. Mice were weighed before the beginning of the experiment and twice a week thereafter to check for signs of toxicity. Control mice (upper panel, first bar) were treated with vehicle (DMSO), NSC348884 at 1.5 mg/kg NSC348884 (upper panel, second bar), very low dose doxorubicin at 20 ug/kg (upper panel, third bar), and the combination of NSC348884/doxorubicin (upper panel, fourth bar).

The subject of assay [2] is Granta (-4, -22 and -519) mantle cell lymphoma cell lines. Briefly: MTT cell viability assay, Granta. The settings on record: for IC50: Homo sapiens, 96 h, Granta-4, -22, -519, MTT. Type of assay: cell-based, human. In general terms: Tetrazolium assays rely on reduction of a dye to a coloured formazan, in cell work by metabolically active cells.
Procedure: Cells and Reagents. Human cancer cell lines used herein include prostate (LNCaP, PC3, DU145), colon (HCT116), lung (A549), breast (MCF7) purchased from American Type Culture Collection (Rockville, Md.) and mantle cell lymphoma (Granta-4, -22 and -519) were maintained in RPMI 1640 medium (Mediatech, Va.) supplemented with 10% fetal bovine serum, 2 mM sodium pyruvate and 100 units/ml penicillin/streptomycin at 37° C. in a humidified atmosphere of 5% CO2.
Assay [3] concerns p53. Briefly: p53 immunocytochemistry. Type of assay: cell-based, human. The settings on record: LNCaP and A549, 5 μM, 6 h, versus vehicle. From the text:
Mounting evidences indicate that NPM negatively regulates tumor suppressor p53 through interaction with p53 directly to prevent its phosphorylation on Ser15 (Maiguel et al., 2004) or through binding with p14ARF to impair the ARF-Hdm2 association and increase Hdm2/p53 complex formation (Gjerset, 2006). NPM knockdown by small interfering RNA enhances p53 phosphorylation and transcriptional activity. Therefore, inhibition of NPM by NSC348884 could affect p53 status. To address this, LNCaP cells were untreated and treated with different dosage of NSC348884 for 2 h to 24 h, and the changes in p53 protein and phosphorylation levels were determined by Western blot. Indeed, NSC348884 increased both p53 protein level and phosphorylation on Ser15 in a dose-dependent manner after 2 h of incubation (FIG. 5A).
Immunocytochemistry. LNCaP, A549 or HCT116 cells grown on cover slips were treated with DMSO or 5 μM of NSC348884 for 6 hr and then fixed in cold methanol:acetone (3:7) for 5 minutes. The cover slips were washed twice with cold PBS and blocked with blocking buffer (1% BSA, 0.01% saponin and 1% normal mouse serum in PBS) for 1 hr at room temperature. The cover slips were then immunostained using anti-p53 antibody at the dilution 1:100 in blocking buffer overnight at 4° C. […]

The subject of assay [4] is distinct cancer cell lines. The assay can be described thus: Inhibition of cell proliferation, summary. The settings on record: Homo sapiens. Type of assay: cell-based. As for the experimental part:
Cell Viability Assays. LNCaP, Granta-4, Granta-22 and Granta-519 cell lines were seeded into 96-well tissue culture plates with 50,000 cells per well, cultured for 24 hours and exposed to NSC348884, doxorubicin or combination for four days. All studies were performed in triplicate and were repeated 3 different times. After incubation, 20 μL of 2 mg/m L 3-(4,5-dimethylthiazol-2-yl)-2,5-diphenyltetrazolium bromide (MTT) were added to each well and incubated an additional four hours. The media and MTT dye were aspirated, and 100 μL dimethyl sulfoxide (DMSO) was added to each well, absorbance was read at 540 nm on a plate reader (Wallac Vector, PerkinElmer). Data was expressed as the percent survival of control calculated from the absorbance, corrected for background.

For a further assay, the system named is LNCaP prostate cell line. Briefly: MTT cell viability assay, LNCaP. Type of assay: cell-based. The settings on record: Homo sapiens, 96 h, 4 days. On the procedure:
NPM plays an essential role in cellular activities such as ribosome biogenesis, cell proliferation, apoptosis and centrosome duplication. Therefore, inhibition of NPM should affect cell growth. To determine the effect of NPM inhibitor NSC348884 on cancer cell proliferation, cell viability assays were conducted on LNCaP and Granta (human mantle cell lymphoma) cells (Granta-519, -4, -22) with varying concentrations of NSC348884 over 4 days. […] The difference in IC50 is attributed to the differential proliferative capacity of the two types of cancer cell lines. Since Rev peptide binds to NPM and potentates the doxorubicin-induced decrease of cellular viability and inhibition of tumor growth in nude mice (Chan et al., 2005), we evaluated if NSC348884 would be additive or synergistic with doxorubicin, a therapy commonly used in this disease. An IC50 of 0.01-0.02 μM for doxorubicin was established for all 3 Granta cell lines, while at 0.1 nM doxorubicin had no effect on cell viability
Cells and Reagents. […]
Cell Viability Assays. […] The media and MTT dye were aspirated, and 100 μL dimethyl sulfoxide (DMSO) was added to each well, absorbance was read at 540 nm on a plate reader (Wallac Vector, PerkinElmer). Data was expressed as the percent survival of control calculated from the absorbance, corrected for background.

For another assay, the system named is 14-3-3 dimer. The assay can be described thus: 14-3-3 dimer formation control, native PAGE. Format: cell-based, human. The settings on record: LNCaP and HCT116 cells, 5 and 6 μM, 24 hr. As for the experimental part: (§1) To examine whether NSC348884 specifically interacts with NPM and disrupts its oligomer formation, LNCaP and HCT116 cells with wild type NPM (no translocations) were treated with varying concentrations of NSC348884 (0, 5, 6 μM) for 24 hr, lyzed under non-denaturing conditions and analyzed by native PAGE which is an excellent tool for detecting oligomers and aggregates since the protein retains its folded conformation. We utilized 14-3-3 which forms dimers as a control. […] The two bands shown in HCT116 represent different isoforms of 14-3-3 proteins. Taken together, NSC348884 is able to bind to NPM and interfere with oligomer formation of NPM specifically.
(§2) Immunoblotting. LNCaP or HCT116 cells were lysed in NP-40 lysis buffer containing 50 mM Tris-Cl (pH 7.4), 0.15 M NaCl, 0.5% NP-40, 1 mM DTT, 50 mM sodium fluoride and 2 μl/ml of a protease inhibitor cocktail (Sigma, St. Louis, Mo.). Protein concentrations were-determined using the Bio-Rad protein assay kit (Hercules, Calif.) and 50 μg of protein was resolved by electrophoresis on a 10% SDS-PAGE. […] The membrane was subjected to the indicated antibodies and the proteins were detected by the SuperSignal West Pico detection system (Pierce, Rockford, Ill.). […]

The subject of assay [5] is MCF7, PC-3, DU145 and Granta cells. The assay can be described thus: Annexin V staining and flow cytometry. Format: cell-based, human. The settings on record: several different cancer cell lines, 24 h. On the procedure: Furthermore, apoptosis induced by NSC348884 was confirmed by Annexin V staining and flow cytometry (FACS) analysis.
(§3) Apoptosis Assays. Drug treated LNCaP cells were examined for apoptotic morphology using a fluorescence staining technique as described previously (Qi and Martinez, 2003). Briefly, cells were exposed to DMSO or 1 to 5 μM of NSC348884 for 24 hr and were harvested by trypsinization. After staining with a mixed dye solution containing […] each of acridine orange and ethidium bromide the morphology of the cells were observed by fluorescence microscopy, and the number of apoptotic cells was quantified. Studies were performed in triplicate and mean+SD calculated. In all cases a minimum of 200 cells were counted for each sample. Using Annexin V staining to detect apoptosis, treated MCF-7, PC-3, DU145 and Granta (−519, −4, −22) cells were harvested by trypsinization and rinsed with cold PBS once. After centrifugation for 5 min, cancer cells were resuspended in 500 μl of 1 Annexin V binding buffer (BioVision, Annexin V-FITC Reagent Kit, Cat. #1001-1000) and then added 1 μl of Annexin V-FITC and 1 μl of Propidium Iodide (BioVision, Annexin VFITC Reagent Kit). After incubation for 5 min at room temperature in the dark, the samples were analyzed by flow cytometry.
On the technique in general: A flow cytometer gives signals particle by particle.

In the next assay the target is T1, NPM oligomer (Homo sapiens, UniProt P06748).
T1 construct: endogenous in cells; host or cells: LNCaP and HCT116
T1 sequence (P06748 whole entry): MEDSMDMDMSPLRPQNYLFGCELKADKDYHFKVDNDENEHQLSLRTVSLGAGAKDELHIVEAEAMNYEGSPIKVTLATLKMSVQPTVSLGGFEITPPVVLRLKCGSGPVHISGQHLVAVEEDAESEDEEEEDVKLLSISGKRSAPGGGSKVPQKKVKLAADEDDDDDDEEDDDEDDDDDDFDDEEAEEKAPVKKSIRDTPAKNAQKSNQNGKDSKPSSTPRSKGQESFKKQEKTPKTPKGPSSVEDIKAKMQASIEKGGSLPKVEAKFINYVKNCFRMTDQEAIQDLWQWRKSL
The assay can be described thus: NPM oligomer formation by native PAGE / immunoblotting. Format: cell-based. As to conditions: LNCaP and HCT116 cells, 5 and 6 μM, 24 hr. As for the experimental part: as §1, §2
On the technique in general: Immunoblotting shows a protein as a band on a membrane.

A further assay has as its system LNCaP. The assay can be described thus: Apoptosis markers by immunoblotting (PARP cleavage, H2AX phosphorylation). As to conditions: 4 and 5 μM. Format: cell-based, human. As for the experimental part: Immunoblotting. LNCaP or HCT116 cells were lysed in NP-40 lysis buffer containing 50 mM Tris-Cl (pH 7.4), 0.15 M NaCl, 0.5% NP-40, 1 mM DTT, 50 mM sodium fluoride and 2 μl/ml of a protease inhibitor cocktail (Sigma, St. Louis, Mo.). Protein concentrations were-determined using the Bio-Rad protein assay kit (Hercules, Calif.) and 50 μg of protein was resolved by electrophoresis on a 10% SDS-PAGE. The proteins were then transferred onto a nitrocellulose membrane and nonspecific binds were blocked by incubating with 5% nonfat milk in TBST buffer (0.01 M Tris-Cl, pH 8.0, 0.15 M NaCl, 0.5% Tween-20) at room temperature for 1 hr. The membrane was subjected to the indicated antibodies and the proteins were detected by the SuperSignal West Pico detection system (Pierce, Rockford, Ill.). For native PAGE gel experiment, the samples were not denatured by heating and the electrophoresis was run in the absence of SDS.

A further assay has as its system LNCaP cells. Briefly: Apoptosis by morphology (acridine orange/ethidium bromide fluorescent staining). Type of assay: cell-based, human. The settings on record: 24 hr. As for the experimental part: as §3
Assay [6] deals with p53. Briefly: p53 / p21 Western blotting. Format: cell-based, human.

In general, IC50 refers to the concentration at which inhibition is half-maximal. `COc1cccc2c1C(=O)c1c(O)c3c(c(O)c1C2=O)C[C@@](O)(C(=O)CO)C[C@@H]3O[C@H]1C[C@H](N)[C@H](O)[C@H](C)O1` [doxorubicin, reference compound]: the survival in assay [1] is 41 days. The IC50 in [2] (4 days) lay within 10 to 20 nM. The “effect on cell viability” value in assay [2] (doxorubicin at 0.1 nM alone) is “no effect”.
Take `Cc1ccc2nc(CN(CCN(Cc3nc4ccc(C)cc4[nH]3)Cc3nc4ccc(C)cc4[nH]3)Cc3nc4ccc(C)cc4[nH]3)[nH]c2c1` [NSC348884, N,N,N′,N′-tetrakis[(5-methyl-2-benzimidazolyl)methyl]-1,2-ethanediamine]: in the assay with p53 [3], the “p53 by immunocytochemistry staining” value is listed as “higher p53 proteins were induced”. Further, the IC50 in [4] was 1700 to 4000 nM; in the assay on LNCaP prostate cell line, approximately 4000 nM; in assay [2] (4 days), approximately 1700 nM. Moreover, in the assay on 14-3-3 dimer, the 14-3-3 dimer formation result is “no effect”. The survival in [1] is 53 days. Also, the survival advantage result in assay [1] (versus control) is “statistically significant survival advantage”. Besides, the “apoptosis by Annexin V binding” value in assay [5] was “induced apoptosis”. The NPM oligomer formation entry at NPM oligomer was “disrupted”. Besides, the “PARP-cleavage and H2AX phosphorylation on Ser139” value in the assay with LNCaP is “correlated well with PARP-cleavage and induction H2AX phosphorylation”. Further, in the assay with LNCaP cells (0-5 μM), the “apoptosis by morphology, dose dependence” value was “dose-dependent increase in apoptosis”. In the assay with LNCaP cells (4 and 5 μM), this compound registered an apoptosis by morphology of more than 50%. In assay [2] (NSC348884 at 1 μM alone, 4 days, MTT), the “effect on cell viability” value is listed as “no effect”. Besides, the p21 protein level result in the assay with p53 [6] (HCT116, 5 μM, 24 h) is recorded as “up-regulated”. The “p53 protein level and phosphorylation on Ser15” value in the assay with p53 [6] (LNCaP, after 2 h of incubation) is on record as “increased”. In the assay on p53 [6] (breast cancer cell line MCF7), the p53 level result was “enhanced p53”.
